Assays:
[1] = molecular target: Histamine H3 receptor (Homo sapiens, UniProt Q9Y5N1); test: Displacement of [3H]Nalpha-methylhistamine from human recombinant histamine H3 receptor expressed in CHO cell membranes after 30 mins by liquid scintillation analysis
[2] = molecular target: Histamine H4 receptor (Homo sapiens, UniProt Q9H3N8); test: Displacement of [3H]histamine from human recombinant histamine H4 receptor expressed in CHO cell membranes after 30 mins by liquid scintillation analysis
Sequence of Histamine H4 receptor (Q9H3N8 whole entry): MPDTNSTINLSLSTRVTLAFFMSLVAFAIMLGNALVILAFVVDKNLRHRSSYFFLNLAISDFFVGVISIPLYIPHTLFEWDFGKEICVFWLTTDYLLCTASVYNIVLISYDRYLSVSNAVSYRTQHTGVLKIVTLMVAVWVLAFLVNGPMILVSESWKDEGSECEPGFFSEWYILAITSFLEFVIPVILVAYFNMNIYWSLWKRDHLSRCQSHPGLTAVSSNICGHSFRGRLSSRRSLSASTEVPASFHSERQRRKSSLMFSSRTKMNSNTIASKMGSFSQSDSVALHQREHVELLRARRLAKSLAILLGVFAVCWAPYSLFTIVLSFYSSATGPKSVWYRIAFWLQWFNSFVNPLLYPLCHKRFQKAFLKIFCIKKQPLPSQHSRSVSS

Sequence of Histamine H3 receptor (Q9Y5N1 whole entry): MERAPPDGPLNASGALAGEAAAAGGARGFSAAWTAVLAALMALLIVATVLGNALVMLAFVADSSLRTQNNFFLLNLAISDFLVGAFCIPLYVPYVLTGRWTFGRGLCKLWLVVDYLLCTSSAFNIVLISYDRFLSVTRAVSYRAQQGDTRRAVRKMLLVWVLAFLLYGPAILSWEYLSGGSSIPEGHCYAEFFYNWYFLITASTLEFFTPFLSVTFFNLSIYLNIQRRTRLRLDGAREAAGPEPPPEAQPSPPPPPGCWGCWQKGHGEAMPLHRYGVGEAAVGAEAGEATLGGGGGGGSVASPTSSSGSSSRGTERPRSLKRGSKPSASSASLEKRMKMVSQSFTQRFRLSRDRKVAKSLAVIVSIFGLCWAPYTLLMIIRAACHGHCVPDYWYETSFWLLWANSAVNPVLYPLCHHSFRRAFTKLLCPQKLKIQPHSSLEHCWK

Compound | Ki [1] [µM] | Ki [2] [µM]
Clc1ccc(CNCC[C@@H]2C[C@H]2c2nc3cc(Cl)ccc3[nH]2)cc1 | > 1 | > 1
Clc1ccc(CNC[C@@H]2C[C@H]2c2nc3cc(Cl)ccc3[nH]2)cc1 | > 1 | > 1
CN1CCN([C@@H]2C[C@@H]2CNCc2ccc(Cl)cc2)CC1 | > 1 | > 1
Clc1ccc(CNC[C@@H]2C[C@@H]2c2cc3cc(Cl)ccc3[nH]2)cc1 | > 1 | > 1
CN1CCN([C@@H]2C[C@@H]2CCNCc2ccc(Cl)cc2)CC1 | > 1 | > 1
Clc1ccc(CNCC[C@H]2C[C@H]2N2CCNCC2)cc1 | > 1 | > 1
c1ccc2[nH]c(C[C@@H]3C[C@H]3c3c[nH]cn3)nc2c1 | 0.186 | 0.295
Clc1ccc(CNC[C@H]2C[C@H]2N2CCNCC2)cc1 | > 1 | > 1
Clc1ccc(CNCC[C@@H]2C[C@@H]2c2cc3cc(Cl)ccc3[nH]2)cc1 | > 1 | > 1
c1ccc2[nH]c(CNCC[C@@H]3C[C@H]3c3c[nH]cn3)nc2c1 | 0.052 | 0.166
